# Results published in US20050232983A1, “Transdermal patch” (INDEVUS PHARMACEUTICALS, INC., priority 2004, published 2005).
# Assay: serum dehydroepiandrosterone sulfate after topical application of the composition
# Type: in vivo
# Conditions: blood sample of recipient after application to skin
# Text: Delivery of dehydroepiandrosterone to the recipient's blood stream can be confirmed by analysis of a blood sample taken from the recipient.
smiles,measurement,value
C[C@]12CC[C@H](O)CC1=CC[C@@H]1[C@@H]2CC[C@]2(C)C(=O)CC[C@@H]12 [dehydroepiandrosterone],plateau of serum dehydroepiandrosterone sulfate relative to baseline,at least twice baseline levels
same,time to increased serum levels of dehydroepiandrosterone sulfate,within twenty-four hours
